In paper PMC12396409, “Screening and hit evaluation of a microbial metabolite library against the pathogenic Plasmodium falciparum and Toxoplasma gondii parasites” (International Journal for Parasitology: Drugs and Drug …, 2025):
*1 amine or outer side, *2 acyl side, *3 side chain or, on linkers, in order; H or OH if unused. Where a SMILES comes first, the peptide text is derived from it. Bridges are numbered along the chain shown (N, C = ends). [ ]: non-standard residue; d: D form. hTyr(3S-OH,4S-OH,3'-OSO3H) = N[C@H](C(=O)O)[C@H](O)[C@@H](O)c1ccc(O)c(OS(=O)(=O)O)c1; Orn(4R-OH,5R-OH) = O=C([C@H](C[C@@H](O)[C@@H](O)N[*:3])N[*:1])[*:2]; Pro(3S-OH,4S-Me) = C[C@H]1CN[C@H](C(=O)O)[C@H]1O; Gln(3R-OH) = NC(=O)C[C@@H](O)[C@H](N)C(=O)O; d(aIle) = CC[C@H](C)[C@@H](N)C(=O)O; Hyp = O=C(O)[C@@H]1C[C@@H](O)CN1; NMeL = CN[C@@H](CC(C)C)C(=O)O; Hiv = CC(C)[C@H](O)C(=O)O

Tests used:
[1] = test system: T. gondii RH strain (RH-Tub-eYFP) tachyzoites; assay: microbe, parasite or virus in culture; assay type: cell-based, Toxoplasma gondii; details: 72 h; for Tg_72h_%Growth_Rep1: replicate 1; for Tg_72h_%Growth_Rep2: replicate 2
[2] = test system: P. falciparum 3D7 parasites; assay: P. falciparum growth inhibition assay, 1-cycle (72 h treatment), SYBR DNA staining (library screen at 2 μg/mL and dose-response); assay type: cell-based, Plasmodium falciparum; details: for Pf_72h_%Growth_Rep1: replicate 1; for Pf_72h_%Growth_Rep2: replicate 2
[3] = test system: P. falciparum 3D7 parasites; assay: P. falciparum growth inhibition assay, 2-cycle (120 h treatment), delayed-death screen and dose-response; assay type: cell-based, Plasmodium falciparum; details: for Pf_120h_%Growth_Rep1: replicate 1; for Pf_120h_%Growth_Rep2: replicate 2
[4] = T. gondii RH, library screen at 2 μg/mL, % growth
[5] = P. falciparum 3D7, 72 h, library screen at 2 μg/mL, % growth
[6] = P. falciparum 3D7, 120 h, library screen at 2 μg/mL, % growth
[7] = P. falciparum, 72 h, screen at 2 μg/mL
[8] = P. falciparum, 120 h, screen at 2 μg/mL
[9] = library screen at 2 μg/mL, % growth
[10] = library screen at 2 μg/mL, 72 h, % growth
[11] = library screen at 2 μg/mL, 120 h, % growth
[12] = T. gondii, parasite screen 2 μg/mL, % growth
[13] = P. falciparum, 72 h, parasite screen 2 μg/mL, % growth
[14] = P. falciparum, 120 h, parasite screen 2 μg/mL, % growth

In the case of Cc1cc(O)cc(=O)o1 [BIA-H1736], the Tg_72h_%Growth_Rep1 [1, 4] is reported as 113.92%, the Tg_72h_%Growth_Rep2 [1, 4] is reported as 93.67% and the Pf_72h_%Growth_Rep1 [2, 5] is reported as 86.06%. The Pf_72h_%Growth_Rep2 [2, 5] was 85.31%, the Pf_120h_%Growth_Rep1 [3, 6] was 102.52% and the Pf_120h_%Growth_Rep2 [3, 6] was 94.50%.
CCC(=O)[C@@H](C)[C@@H](O)[C@H](C)C[C@@H](C)[C@H]1OC(=O)C[C@@]2(O)CC=C(C)[C@H](O2)/C(C)=C/CCC[C@@H](O[C@H]2C[C@@H](OC(N)=O)[C@H](O)[C@@H](C)O2)/C=C/[C@H](C)C[C@H]1C [Venturicidin A] was tested, and the Tg_72h_%Growth_Rep1 ([1]; T. gondii, screen at 2 μg/mL) was -1.24%, the Tg_72h_%Growth_Rep2 ([1]; T. gondii, screen at 2 μg/mL) was 0.71% and the Pf_72h_%Growth_Rep1 [2, 7] was 8.64%. For the same molecule, the Pf_72h_%Growth_Rep2 [2, 7] was 1.38%, the Pf_120h_%Growth_Rep1 [3, 8] was 19.97% and the Pf_120h_%Growth_Rep2 [3, 8] was -12.87%.
C/C=C(\C)C(=O)OC[C@H]1O[C@H](O[C@H]2O[C@H](COC(=O)/C(C)=C/C)[C@@H](O)[C@H](O)[C@H]2O[C@@H]2O[C@H](CO)[C@@H](OC(=O)/C(C)=C/C)[C@H](OC(=O)/C(C)=C/C)[C@H]2O)[C@H](O[C@@H]2O[C@H](CO)[C@@H](OC(=O)/C(C)=C/C)[C@H](OC(=O)/C(C)=C/C)[C@H]2O)[C@@H](O)[C@@H]1O [Actinotetraose Hexatiglate] was tested, and the Tg_72h_%Growth_Rep1 [1, 9] was 97.33%, the Tg_72h_%Growth_Rep2 [1, 9] was 100.02% and the “1) Growth (%) at 72 h” value ([2]; P. falciparum, 2 μg/mL, 72 h) was 46.54%. The Pf_72h_%Growth_Rep1 [2, 10] was 45.55%, the Pf_72h_%Growth_Rep2 [2, 10] was 47.53% and the “2) Growth (%) at 120 h” value ([3]; P. falciparum, 2 μg/mL, 120 h) was 19.22%. For the same molecule, the “3) Fold change (72 h/120 h)” value ([3]; P. falciparum, growth at 72 h / growth at 120 h, 2 μg/mL) was 2.4, the Pf_120h_%Growth_Rep1 [3, 11] was 16.78% and the Pf_120h_%Growth_Rep2 [3, 11] was 21.66%.
With CC(=O)OC[C@]12[C@H](O)C(=O)C(C)=C[C@H]1O[C@@H]1[C@H](O)C[C@@]2(C)[C@]12CO2 [Acetyldeoxynivalenol, 15-] the Tg_72h_%Growth_Rep1 [1, 9] was -2.45%, the Tg_72h_%Growth_Rep2 [1, 9] was -0.58% and the Pf_72h_%Growth_Rep1 [2, 10] was 5.76%. It also gave a Pf_72h_%Growth_Rep2 [2, 10] of -0.64%, a Pf_120h_%Growth_Rep1 [3, 11] of 6.22% and a Pf_120h_%Growth_Rep2 [3, 11] of 4.98%.
C=C(C)[C@H](C)CC[C@](C)(O)[C@H]1CC[C@]2(C)[C@@H]1CC[C@@H]1[C@@]3(C)CC[C@H](O)C(C)(C)[C@@H]3CC[C@]12C [Carnaubadiol] was tested, and the Tg_72h_%Growth_Rep1 ([1]; T. gondii, screen at 2 μg/mL) was 149.01%, the Tg_72h_%Growth_Rep2 ([1]; T. gondii, screen at 2 μg/mL) was 97.97% and the Pf_72h_%Growth_Rep1 [2, 7] was 84.27%. For the same molecule, the Pf_72h_%Growth_Rep2 [2, 7] was 81.18%, the Pf_120h_%Growth_Rep1 [3, 8] was 92.23% and the Pf_120h_%Growth_Rep2 [3, 8] was 87.62%.
C[C@@H](O)[C@@H]1NC(=O)[C@@H](N)C[C@@H](O)[C@@H](O)NC(=O)[C@@H]2[C@@H](O)[C@@H](C)CN2C(=O)[C@H]([C@H](O)CC(N)=O)NC(=O)[C@H]([C@H](O)[C@@H](O)c2ccc(O)c(OS(=O)(=O)O)c2)NC(=O)[C@@H]2C[C@@H](O)CN2C1=O [FR 179642] (H-[Orn(4R-OH,5R-OH)]T[Hyp][hTyr(3S-OH,4S-OH,3'-OSO3H)][Gln(3R-OH)][Pro(3S-OH,4S-Me)]; lactam 1-C) gave a Tg_72h_%Growth_Rep1 [1, 9] of 133.49%, a Tg_72h_%Growth_Rep2 [1, 9] of 86.61% and a Pf_72h_%Growth_Rep1 [2, 10] of 86.67%. The Pf_72h_%Growth_Rep2 [2, 10] was 86.11%, the Pf_120h_%Growth_Rep1 [3, 11] was 98.57% and the Pf_120h_%Growth_Rep2 [3, 11] was 95.35%.
Molecule CC(=O)OCc1c(O)c2c(c3c1OC(=O)c1c(C)cc(O)c(C=O)c1O3)C(O)OC2=O (stereo not drawn) [Galbinic acid] has a Tg_72h_%Growth_Rep1 [1, 9] of 125.30%, a Tg_72h_%Growth_Rep2 [1, 9] of 103.13% and a Pf_72h_%Growth_Rep1 [2, 10] of 88.09%. The Pf_72h_%Growth_Rep2 [2, 10] was 110.75%, the Pf_120h_%Growth_Rep1 [3, 11] was 99.54% and the Pf_120h_%Growth_Rep2 [3, 11] was 110.27%.
CC[C@H](C)[C@H]1NC(=O)[C@H](C(C)C)OC(=O)[C@H](CC(C)C)N(C)C(=O)[C@H](C(C)C)NC(=O)[C@H](C(C)C)OC(=O)[C@@H](CC(C)C)NC1=O [Sporidesmolide II] (cyclo([Hiv]V[NMeL][Hiv][d(aIle)][dL])) showed a Tg_72h_%Growth_Rep1 [1, 12] of 96.52%, a Tg_72h_%Growth_Rep2 [1, 12] of 86.44% and a Pf_72h_%Growth_Rep1 [2, 13] of 88.48%. The Pf_72h_%Growth_Rep2 [2, 13] was 54.25%, the Pf_120h_%Growth_Rep1 [3, 14] was 86.28% and the Pf_120h_%Growth_Rep2 [3, 14] was 130.73%.
